For 21 compounds, T/C results are on record in PubChem BioAssay AID200 (DTP/NCI, 2004).

Several values for one entry are separate records, joined by “and”; a condition that tells them apart may be missing. Identical values can stand only once. Inconclusive results and toxic doses are left out. Where a SMILES comes first, the peptide text is derived from it. [ ]: non-standard residue; d: D form. The star is where a group is joined. ξ: configuration not given here. Cbz = O=C(OCc1ccccc1)*; OBn = c1ccc(CO*)cc1; Bn = c1ccc(C*)cc1; ξC = NC(CS)C(=O)O

This experiment concerns B6C3F1 mice, B16 melanoma ip, median survival T/C. The experiment in a line: NCI In Vivo Anticancer Drug Screen. Data for tumor model B16 Melanoma (intraperitoneal) in B6C3F1 mice. Particulars: endpoint: median survival time, schedule: Q01DX009 (ip), higher = longer survival. In outline: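 Antitumor effect was judged in mice with transplanted tumors by dividing the treated group's survival measure by that of vehicle controls.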

Setting [1] is: dose: 25.0 mg/kg/injection, vehicle: saline.
[2] abbreviates: dose: 25.0 mg/kg/injection, vehicle: saline with Tween-80.
Setting [3] is: dose: 50.0 mg/kg/injection, vehicle: saline with Tween-80.
The mark [4] stands for this setting: dose: 100.0 mg/kg/injection, vehicle: saline with Tween-80.
[5] abbreviates: dose: 200.0 mg/kg/injection, vehicle: saline with Tween-80.
Where [6] appears, read: dose: 400.0 mg/kg/injection, vehicle: saline with Tween-80.
Setting [7] is: dose: 12.5 mg/kg/injection, vehicle: saline with Tween-80.
Setting [8] is: dose: 12.5 mg/kg/injection, vehicle: Klucel (hydroxypropylcellulose) (HPC).
[9] abbreviates: dose: 25.0 mg/kg/injection, vehicle: Klucel (hydroxypropylcellulose) (HPC).
Setting [10] is: dose: 50.0 mg/kg/injection, vehicle: Klucel (hydroxypropylcellulose) (HPC).
The mark [11] stands for this setting: dose: 100.0 mg/kg/injection, vehicle: Klucel (hydroxypropylcellulose) (HPC).
Setting [12] is: dose: 200.0 mg/kg/injection, vehicle: Klucel (hydroxypropylcellulose) (HPC).
The mark [13] stands for this setting: dose: 400.0 mg/kg/injection, vehicle: Klucel (hydroxypropylcellulose) (HPC).
Setting [14] is: dose: 6.25 mg/kg/injection, vehicle: Klucel (hydroxypropylcellulose) (HPC).

Take `CC(C)C1C(=O)N2CCCC2C2(O)OC(NC(=O)C3C=C4c5cccc6[nH]cc(c56)CC4N(C)C3)(C(C)C)C(=O)N12` (stereo not drawn): the T/C by setting is: (dose: 8.0 mg/kg/injection, vehicle: Klucel (hydroxypropylcellulose) (HPC)) 106 % of control; (dose: 16.0 mg/kg/injection, vehicle: Klucel (hydroxypropylcellulose) (HPC)) 109 % of control; (dose: 32.0 mg/kg/injection, vehicle: Klucel (hydroxypropylcellulose) (HPC)) 117 % of control; (dose: 64.0 mg/kg/injection, vehicle: Klucel (hydroxypropylcellulose) (HPC)) 105 % of control.
Regarding `CCCC[C@H]1C(=O)O[C@H](C)[C@H](NC(=O)c2cccc(NC=O)c2O)C(=O)O[C@@H](C)[C@@H]1OC(=O)CC(C)C`, the T/C by setting is: (dose: 0.12 mg/kg/injection, vehicle: Klucel (hydroxypropylcellulose) (HPC)) 96 % of control; (dose: 0.25 mg/kg/injection, vehicle: Klucel (hydroxypropylcellulose) (HPC)) 96 % of control; (dose: 0.5 mg/kg/injection, vehicle: Klucel (hydroxypropylcellulose) (HPC)) 91 % of control and 98 % of control.
`CN1CCN(c2ccc3nc(-c4ccc5nc(-c6ccc(O)cc6)[nH]c5c4)[nH]c3c2)CC1`: the T/C is, setting by setting: (dose: 6.25 mg/kg/injection, vehicle: saline) 95 % of control; (dose: 12.5 mg/kg/injection, vehicle: saline) 99 % of control; under setting [1], 89 % of control.
For `CN(C)c1cccc(F)c1C(=O)NC(=O)Nc1ccc(Cl)cc1`, the T/C runs as follows: (dose: 37.5 mg/kg/injection, vehicle: saline with Tween-80) 97 % of control; (dose: 75.0 mg/kg/injection, vehicle: saline with Tween-80) 111 % of control; (dose: 150.0 mg/kg/injection, vehicle: saline with Tween-80) 101 % of control.
On to `NC(C(=O)O)c1ccc(CBr)cc1` (stereo not drawn), for which the T/C is 114 % of control (dose: 6.0 mg/kg/injection, vehicle: saline with Tween-80); 111 % of control (dose: 6.25 mg/kg/injection, vehicle: saline with Tween-80); 159 % of control under setting [2]; 155 % of control and 165 % of control under setting [3]; 150 % of control and 183 % of control under setting [4].
In the case of `O=C1C(Cl)=C(Cl)C(=O)C2=C1C1c3ccccc3C2c2ccccc21`, the T/C reads like this: under setting [4], 94 % of control; under setting [5], 86 % of control.
Regarding `O=C(NC(CSSCC(NC(=O)c1ccccc1)C(=O)O)C(=O)O)c1ccccc1` (stereo not drawn), the T/C is 109 % of control under setting [3], 108 % of control under setting [4], 106 % of control under setting [5] and 100 % of control under setting [6].
Regarding `[O-][n+]1c(CN2CCCCC2)nc2cccc3c2c1-c1ccccc1-3`, the T/C reads like this: under setting [7], 98 % of control; under setting [2], 88 % of control; under setting [3], 102 % of control; under setting [4], 91 % of control; under setting [6], 103 % of control.
Regarding `COc1cc(-c2ccc(Nc3ccccc3C(=O)O)c(OC)c2)ccc1Nc1ccccc1C(=O)O`, the T/C by setting is: (dose: 100.0 mg/kg/injection, vehicle: suspension in saline) 94 % of control; (dose: 200.0 mg/kg/injection, vehicle: suspension in saline) 99 % of control; (dose: 400.0 mg/kg/injection, vehicle: suspension in saline) 98 % of control.
Take `NC(=O)SCC(N)C(=O)O` (stereo not drawn): the T/C was 92 % of control under setting [3], 87 % of control under setting [4] and 96 % of control under setting [5].
`Nc1ncnc2c1c1c(=O)[nH]c(=O)[nH]c1n2C1OC(CO)C(O)C1O` (stereo not drawn): the T/C by setting is: (dose: 25.0 mg/kg/injection, vehicle: distilled water + Tween-80) 123 % of control; (dose: 200.0 mg/kg/injection, vehicle: distilled water + Tween-80) 172 % of control.
As to `CC(C)(C)OC(=O)NC(Cc1c[nH]c2ccccc12)C(=O)ON1C(=O)CCC1=O` (stereo not drawn), the T/C under setting [7] is 89 % of control, the T/C under setting [2] was 100 % of control and the T/C under setting [3] is 88 % of control.
`O=C(O)CCC(NC(=O)OCc1ccccc1)C(=O)NCC(=O)O` (stereo not drawn) (HELM PEPTIDE1{[O=C(OCc1ccccc1)[*:2]].[O=C(O)CCC(N[*:1])C(=O)[*:2]].G}$$$$V2.0): the T/C is, setting by setting: under setting [1], 102 % of control; (dose: 50.0 mg/kg/injection, vehicle: saline) 97 % of control; (dose: 100.0 mg/kg/injection, vehicle: saline) 107 % of control; (dose: 200.0 mg/kg/injection, vehicle: saline) 113 % of control; (dose: 400.0 mg/kg/injection, vehicle: saline) 112 % of control.
Take `CN(C)N=Nc1cn[nH]c1C(N)=O`: the T/C reads like this: under setting [8], 98 % of control; under setting [9], 91 % of control; under setting [10], 96 % of control; under setting [11], 87 % of control; under setting [12], 89 % of control; under setting [13], 86 % of control.
Turning to `CC(C)CC(NC(=O)OCC1c2ccccc2-c2ccccc21)C(=O)O` (stereo not drawn), the T/C reads like this: under setting [9], 102 % of control; under setting [11], 122 % of control and 101 % of control.
`O=C1C=C(Nc2ccccc2)c2ccccc2C1=O`: the T/C is 104 % of control under setting [9], 96 % of control under setting [10] and 91 % of control under setting [11].
Regarding `CC1[C@@H]2CC=C3[C@H]4CCC5Cc6nc7c(nc6C[C@@]5(C)C4CC(=O)[C@]32CO[C@]12OC(C)(C)CC2O)CC1CC[C@@H]2C3=C[C@H]4O[C@@]5(O[C@@](C)(CO)C[C@@H]5O)C(C)[C@@]4(O)[C@]3(C)[C@@H](O)CC2[C@]1(C)C7` (stereo partly drawn), the T/C was 101 % of control (dose: 6.25 micrograms/kg/injection, vehicle: saline + alcohol); 98 % of control (dose: 12.5 micrograms/kg/injection, vehicle: saline + alcohol); 98 % of control (dose: 25.0 micrograms/kg/injection, vehicle: saline + alcohol); 102 % of control (dose: 50.0 micrograms/kg/injection, vehicle: saline + alcohol).
In the case of `C[C@@H]1C[C@H]2[C@@H]3CCC4=CC(=O)C=C[C@]4(C)[C@@]3(F)[C@@H](O)C[C@]2(C)[C@@]1(O)C(=O)CO`, the T/C was 109 % of control (dose: 3.12 mg/kg/injection, vehicle: Klucel (hydroxypropylcellulose) (HPC)); 118 % of control under setting [14]; 104 % of control under setting [8].
Turning to `O=C(CNC(=O)C(CSCc1ccccc1)NC(=O)OCc1ccccc1)NCC(=O)OCc1ccccc1` (stereo not drawn) (Cbz-[ξC](Bn)-Gly-Gly-OBn), the T/C is 92 % of control under setting [8] and 88 % of control under setting [9].
In the case of `CSCCC(NC(=O)CNC(=O)OCc1ccccc1)C(=O)O` (stereo not drawn), the T/C runs as follows: (dose: 3.0 mg/kg/injection, vehicle: Klucel (hydroxypropylcellulose) (HPC)) 101 % of control and 103 % of control; (dose: 6.0 mg/kg/injection, vehicle: Klucel (hydroxypropylcellulose) (HPC)) 95 % of control; under setting [14], 93 % of control; (dose: 12.0 mg/kg/injection, vehicle: Klucel (hydroxypropylcellulose) (HPC)) 101 % of control and 103 % of control; under setting [8], 97 % of control; under setting [9], 93 % of control and 94 % of control. The T/C was 95 % of control and 99 % of control and 102 % of control under setting [10]; 95 % of control under setting [11]; 101 % of control under setting [12]; 95 % of control under setting [13].
Regarding `CN(C)c1ccc2c(Nc3ccc(NS(C)(=O)=O)cc3)c3ccc(N(C)C)cc3nc2c1`, the T/C reads like this: under setting [9], 94 % of control; under setting [10], 115 % of control and 92 % of control; under setting [11], 90 % of control and 104 % of control.
